# Reference: patent US12528802B2, “Heterocyclic compound” (Takeda Pharmaceutical Company Limited, priority 2019, dated 2026)
# Target: T1, glucosylceramide synthase (Homo sapiens, UniProt Q16739)
# T1 construct: made in house; host or cells: Expi293F cells (transient expression, pcDNA3.3-TOPO vector); microsome fraction used as enzyme source
# T1 sequence (Q16739 1-394): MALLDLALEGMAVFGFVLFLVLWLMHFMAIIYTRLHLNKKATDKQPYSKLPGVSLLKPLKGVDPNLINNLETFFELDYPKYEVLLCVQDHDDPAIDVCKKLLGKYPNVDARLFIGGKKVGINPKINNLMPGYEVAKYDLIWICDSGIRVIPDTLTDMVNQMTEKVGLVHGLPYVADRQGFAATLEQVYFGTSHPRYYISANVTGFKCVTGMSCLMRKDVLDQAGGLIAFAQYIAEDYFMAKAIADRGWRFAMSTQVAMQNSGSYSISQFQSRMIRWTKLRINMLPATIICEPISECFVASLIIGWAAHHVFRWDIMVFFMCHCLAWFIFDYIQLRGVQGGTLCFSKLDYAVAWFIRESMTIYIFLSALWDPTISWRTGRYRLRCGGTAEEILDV
# Assay: Glucosylceramide synthase (GCS) enzyme assay, microsome fraction, C8 glucosylceramide quantified by Rapidfire MS/MS
# Assay type: biochemical
# Conditions: test compound 10 μM; 1.7 μM UDP-glucose, 3 μM C8 ceramide; room temperature 60 min
# Description: Glucosylceramide Synthase (GCS) Assay
# In enzyme assay, a microsome fraction obtained by transient expression by Expi293F™ cells (catalog number: A14527, Thermo Fisher Scientific) was used as a glucosylceramide synthase source. Liposomal C8 ceramide and UDP-glucose were used as substrates. […] After the enzymatic reaction, the analysis was performed with Rapidfire MS/MS (API-4000™, SCIEX), and C8 glucosylceramide was quantified to evaluate the inhibitory activity of the test compound against glucosylceramide synthase activity.
# PcDNA3.3TOPO vector (catalog number: K830001, Thermo Fisher Scientific) into which the human GCS gene was inserted was introduced into Expi293F™ Cells (catalog number: A14527, Thermo Fisher Scientific) by using ExpiFectamine™ 293 Transfection Kit (catalog number: A14525, Thermo Fisher Scientific). The cultured cells were dissolved in D-PBS (catalog number: 048-29805, Fuji Film Wako Pure Chemical Industries, Ltd.) containing 1 mM PMSF, and the solution was allowed to stand on ice for 30 minutes, and then subjected to cell disruption (homogenized). The disruption solution was centrifuged at 10,000×g for 20 minutes at 4° C., and the obtained supernatant was centrifuged at 142,400×g for 60 minutes at 4° C. The obtained precipitate was resuspended in a D-PBS solution containing 1 mM PMSF, and homogenized again to prepare as a microsome fraction. Protein quantification was performed by the CBB method.
# A 1 mM compound solution prepared by dissolving the test compound in DMSO was added to a 384-well plate by 100 nL so that the final concentration of the test compound was 10 μM. Next, a substrate solution consisting of 3.4 μM UDP-glucose and 6 μM C8 ceramide was added by 5 μL, followed by an enzyme solution consisting of a 25 μg/mL microsome fraction by 5 μL. C8 ceramide was prepared from liposomes composed of 15 mol % C8 ceramide and 85 mol % dioleoyl phosphatidylcholine (1,2-dioleoyl-sn-glycero-3-phosphocholine: DOPC). The enzymatic reaction was carried out in a solution consisting of 20 mM tris-hydrochloric acid buffer (pH 7.5), 0.01% Tween 20, 0.01% bovine serum albumin and 1 mM dithiothreitol at room temperature for 60 min. Then, a solution consisting of 75% isopropanol and 1% formic acid containing 0.25 μM N-Octadecanoyl-D35-psichosine (catalog number: 1914, Matreya) as an internal standard substance was added by 60 μL to stop the enzymatic reaction. 5 μL of the centrifugal supernatant of the obtained reaction product was analyzed by Rapidfire MS/MS (Agilent Technologies) using API-4000™ (SCIEX), and the C8 glucosylceramide was quantified to evaluate the inhibitory activity of the test compound against the glucosylceramide synthase activity. The inhibitory activity of the test compound was evaluated when the C8 glucosylceramide level in the enzyme-free solution was considered as 100% inhibitory and the enzyme activity of the DMSO group in the absence of the compound was considered as 0% inhibitory.
row,GCS enzyme inhibitory rate at 10 μM (%) (% of control),SMILES
1,99,"O=C1c2ccnc(-c3ccc(F)cc3OCC(F)(F)F)c2CN1c1ccc(C(O)C(F)F)cc1 (single isomer, unassigned) [Example 279, (R or S)-2-[4-(2,2-difluoro-1-hydroxyethyl)phenyl]-4-[4-fluoro-2-(2,2,2-trifluoroethoxy)phenyl]-2,3-dihydro-1H-pyrrolo[3,4-c]pyridin-1-one]"

# Same assay, conditions: test compound 10 μM; 1.7 μM UDP-glucose, 3 μM C8 ceramide; room temperature 60 min; read-out: GCS enzyme inhibitory rate at 10 μM (%) (% of control)
row,SMILES,inhibition at 10 µM [%]
1,"CC(O)c1ccc(N2Cc3c(ccnc3-c3ccc(F)cc3OCC(F)(F)F)C2=O)cc1F (racemic) [Example 292, rac-2-[3-fluoro-4-(1-hydroxyethyl)phenyl]-4-[4-fluoro-2-(2,2,2-trifluoroethoxy)phenyl]-2,3-dihydro-1H-pyrrolo [3,4-c]pyridin-1-one]",99
2,"CC(C)(C)[Si](C)(C)OC1(c2ccc(N3Cc4c(ccnc4-c4ccc(F)cc4OCC(F)(F)F)C3=O)cc2)CC1 [Example 224, 2-[4-(1-{[tert-butyl(dimethyl)silyl]oxy}-cyclopropyl)phenyl]-4-[4-fluoro-2-(2,2,2-trifluoroethoxy)phenyl]-2,3-dihydro-1H-pyrrolo[3,4-c]pyridin-1-one]",99
3,"Fc1ccc(N2Cc3cnn(-c4ccccc4OCC(F)(F)F)c3C2)cc1 [Example 193, 5-(4-fluorophenyl)-1-[2-(2,2,2-trifluoroethoxy)phenyl]-1,4,5,6-tetrahydropyrrolo[3,4-c]pyrazole]",98
4,"O=C1c2ccnc(-c3ccc(F)cc3OCC(F)(F)F)c2CN1c1ccc(C2(O)COC2)cc1 [Example 155, 4-[4-fluoro-2-(2,2,2-trifluoroethoxy)phenyl]-2-[4-(3-hydroxyoxetan-3-yl)phenyl]-2,3-dihydro-1H-pyrrolo[3,4-c]pyridin-1-one]",93
5,"Cn1ccc(N2Cc3c(ccnc3-c3ccc(F)cc3OCC(F)(F)F)C2=O)n1 [Example 45, 4-[4-fluoro-2-(2,2,2-trifluoroethoxy)phenyl]-2-(1-methyl-1H-pyrazol-3-yl)-2,3-dihydro-1H-pyrrolo[3,4-c]pyridin-1-one]",89
6,"Cc1cc2c(c(-c3ccccc3OCC(F)(F)F)n1)CN(c1ccc(OCC(C)(C)O)cc1)C2=O [Example 364, 2-[4-(2-hydroxy-2-methylpropoxy)phenyl]-6-methyl-4-[2-(2,2,2-trifluoroethoxy)phenyl]-2,3-dihydro-1H-pyrrolo [3,4-c]pyridin-1-one]",100
7,"Fc1ccc(N2Cc3ccnc(-c4ccccc4OCC(F)(F)F)c3C2)cc1 [Example 168, 2-(4-fluorophenyl)-4-[2-(2,2,2-trifluoroethoxy)phenyl]-2,3-dihydro-1H-pyrrolo[3,4-c]pyridine]",100
8,"N#CCc1ccc(N2Cc3c(ccnc3-c3ccc(F)cc3OCC(F)(F)F)C2=O)cc1 [Example 237, (4-{4-[4-fluoro-2-(2,2,2-trifluoroethoxy)phenyl]-1-oxo-1,3-dihydro-2H-pyrrolo[3,4-c]pyridin-2-yl}phenyl)acetonitrile]",91
9,"O=C1c2ccnc(-c3ccc(F)cc3OCC(F)(F)F)c2CN1c1ccc(F)cc1 [Example 13, 2-(4-fluorophenyl)-4-[4-fluoro-2-(2,2,2-trifluoroethoxy)phenyl]-2,3-dihydro-1H-pyrrolo[3,4-c]pyridin-1-one]",63

# Continued, values first:
row,inhibition at 10 µM [%],SMILES
1,87,"N#Cc1ccc(N2Cc3c(ccnc3-c3ccccc3OCC(F)(F)F)C2=O)cc1 [Example 68, 4-{1-oxo-4-[2-(2,2,2-trifluoroethoxy)phenyl]-1,3-dihydro-2H-pyrrolo[3,4-c]pyridin-2-yl}benzonitrile]"
2,99,"CC(C)(C#N)c1ccc(N2Cc3c(ccnc3-c3ccc(F)cc3OCC(F)(F)F)C2=O)cc1 [Example 269, 2-(4-{4-[4-fluoro-2-(2,2,2-trifluoroethoxy)phenyl]-1-oxo-1,3-dihydro-2H-pyrrolo[3,4-c]pyridin-2-yl}phenyl)-2-methylpropanenitrile]"
3,100,"N#Cc1ccc(N2Cc3c(ccnc3-c3ccccc3OCC(F)(F)F)C2=O)nc1 [Example 72, 6-{1-oxo-4-[2-(2,2,2-trifluoroethoxy)phenyl]-1,3-dihydro-2H-pyrrolo[3,4-c]pyridin-2-yl}pyridine-3-carbonitrile]"
4,95,"CC(C)(O)c1ccc(N2Cc3c(ccnc3-c3cc(F)c(F)cc3OCC(F)(F)F)C2=O)cc1 [Example 322, 4-[4,5-difluoro-2-(2,2,2-trifluoroethoxy)phenyl]-2-[4-(2-hydroxypropan-2-yl)phenyl]-2,3-dihydro-1H-pyrrolo [3,4-c]pyridin-1-one]"
5,98,"O=C1c2ccnc(-c3ccccc3OCC3CC(F)(F)C3)c2CN1c1ccc(F)cc1 [Example 103, 4-{2-[(3,3-difluorocyclobutyl)methoxy]phenyl}-2-(4-fluorophenyl)-2,3-dihydro-1H-pyrrolo[3,4-c]pyridin-1-one]"
6,99,"CC(C)(O)c1ccc(N2Cc3c(ccnc3-c3cc(F)ccc3OCC(F)(F)F)C2=O)cc1 [Example 323, 4-[5-fluoro-2-(2,2,2-trifluoroethoxy)phenyl]-2-[4-(2-hydroxypropan-2-yl)phenyl]-2,3-dihydro-1H-pyrrolo[3,4-c]pyridin-1-one]"
7,99,"COc1ccccc1-c1nccc2c1CN(c1ccc(C)cc1)C2=O [Example 23, 4-(2-methoxyphenyl)-2-(4-methylphenyl)-2,3-dihydro-1H-pyrrolo[3,4-c]pyridin-1-one]"
8,100,"CC(C)(O)c1ccc(N2Cc3c(cc(C(C)(C)F)nc3-c3ccccc3OCC(F)(F)F)C2=O)cc1 [Example 384, 6-(2-fluoropropan-2-yl)-2-[4-(2-hydroxypropan-2-yl)phenyl]-4-[2-(2,2,2-trifluoroethoxy)phenyl]-2,3-dihydro-1H-pyrrolo[3,4-c]pyridin-1-one]"
9,99,"CC(C)(O)c1ccc(N2Cc3c(ccnc3-c3ccccc3OCC(F)F)C2=O)nc1 [Example 288, 4-[2-(2,2-difluoroethoxy)phenyl]-2-[5-(2-hydroxypropan-2-yl)pyridin-2-yl]-2,3-dihydro-1H-pyrrolo [3,4-c]pyridin-1-one]"
10,85,"O=C1c2ccnc(-c3ccc(F)cc3OCC(F)(F)F)c2CN1c1ccc(C(F)(F)F)cn1 [Example 61, 4-[4-fluoro-2-(2,2,2-trifluoroethoxy)phenyl]-2-[5-(trifluoromethyl)pyridin-2-yl]-2,3-dihydro-1H-pyrrolo[3,4-c]pyridin-1-one]"
11,97,"O=C1c2ccnc(-c3ccc(F)cc3OCC(F)(F)F)c2CN1c1ccc(C2(O)CCOC2)cn1 (racemic) [Example 256, rac-4-[4-fluoro-2-(2,2,2-trifluoroethoxy)phenyl]-2-[5-(3-hydroxyoxolan-3-yl)pyridin-2-yl]-2,3-dihydro-1H-pyrrolo[3,4-c]pyridin-1-one]"
12,100,"CC(O)(c1ccc(N2Cc3c(ccnc3-c3ccc(F)cc3OCC(F)(F)F)C2=O)cc1)C(F)F (single isomer, unassigned) [Example 311, (R or S)-2-[4-(1,1-difluoro-2-hydroxypropan-2-yl)phenyl]-4-[4-fluoro-2-(2,2,2-trifluoroethoxy)phenyl]-2,3-dihydro-1H-pyrrolo[3,4-c]pyridin-1-one]"
13,93,"COc1ccccc1-c1nccc2c1CN(c1ccc(OC(F)F)cn1)C2=O [Example 39, 2-[5-(difluoromethoxy)pyridin-2-yl]-4-(2-methoxyphenyl)-2,3-dihydro-1H-pyrrolo[3,4-c]pyridin-1-one]"
